Read-outs that look alike come from different tables or passages of the source.
Tests used:
[1] = cited from earlier work
[2] = for ELF AUC0-24 / Plasma AUC0-24: steady state, healthy subjects, Study I6424-108a, N = 20
From the text: (§1) By fixing the plasma PK parameters to the individual post hoc values, it was possible to predict ELF concentrations using a biophase model with unidirectional first-order transfer from the central compartment to ELF (k13) and first-order elimination from the ELF compartment (k30). In order to allow for the estimation of IIV in k30, since only one ELF measurement was collected per subject, the residual variability of ELF data was fixed to be equal to that previously estimated for the plasma PK data in healthy subjects from Phases 1 and 4 studies. […] In this simulation, the parameter estimates from the modified final population PK model were utilized along with the mean (standard deviation) of the subject covariate effects in the model, such as age and body weight from healthy subjects in Study I6424-108a.

clinical = details: human, iv, 10 mg/kg; for Kp uu: epithelial lining fluid (ELF) / plasma; for Kp: epithelial lining fluid (ELF) versus total-drug plasma, ELF penetration ratio (total drug)
From the text: as §1

[3] = final population PK model, final estimate

For oritavancin, the “reported ELF penetration ratio” value ([1]; in vivo) is given as 459%.

For dalbavancin, the “reported ELF penetration” value [1] is listed as 36%.

For vancomycin, the ELF penetration ([1]; healthy volunteers with outliers removed) is listed as 41%–56.

For `CCCCCCCCCCNCCN[C@@]1(C)C[C@H](O[C@H]2[C@H](Oc3c4cc5cc3Oc3ccc(cc3Cl)[C@@H](O)[C@@H](NC(=O)[C@@H](CC(C)C)NC)C(=O)N[C@@H](CC(N)=O)C(=O)N[C@H]5C(=O)N[C@H]3C(=O)N[C@H](C(=O)N[C@H](C(=O)O)c5cc(O)c(CNCP(=O)(O)O)c(O)c5-c5cc3ccc5O)[C@H](O)c3ccc(c(Cl)c3)O4)O[C@H](CO)[C@@H](O)[C@@H]2O)O[C@@H](C)[C@H]1O` [telavancin], the “CLDL (dialysis clearance)” value (bootstrap (N = 200), mean) was 1.79 L/h, the “CLR, max (maximum renal clearance)” value (bootstrap (N = 200), mean) was 1.04 L/h and the “CLd coefficient (distributional clearance between central and peripheral compartments)” value (“CLd coefficient” for short) (bootstrap (N = 200), mean) was 3.78 L/h. The Vc-TBW power (bootstrap (N = 200), mean) was 0.438, the Vc-age power (bootstrap (N = 200), mean) was 0.184 and the “Vc-increase for CKD5 subjects after >48 hours has elapsed between IHD sessions” value (from here on “Vc-increase for CKD5 subjects”) (bootstrap (N = 200), mean) was 1.57 L. For the same compound, the “Vc-proportional increase for bacteremia/HABP/VABP patients” value (bootstrap (N = 200), mean) was 0.600, the “Vc-proportional increase for cSSSI patients” value (bootstrap (N = 200), mean) was 0.299 and the “Vc-proportional increase for females” value (bootstrap (N = 200), mean) was −0.0583. The Vp-BMI power (bootstrap (N = 200), mean) was −0.325, the Vp-TBW power (bootstrap (N = 200), mean) was 0.971 and the Vp-age power (bootstrap (N = 200), mean) was 0.289. The “Vp-proportional increase for bacteremia/HABP/VABP patients” value (bootstrap (N = 200), mean) was 0.288, the “Vp-proportional increase for cSSSI patients” value (bootstrap (N = 200), mean) was 0.127 and the “CLDL (dialysis clearance)” value (bootstrap (N = 200), median) was 1.77 L/h. The “CLR, max (maximum renal clearance)” value (bootstrap (N = 200), median) was 1.04 L/h, the “CLd coefficient” value (bootstrap (N = 200), median) was 3.75 L/h and the Vc-TBW power (bootstrap (N = 200), median) was 0.442. For the same compound, the Vc-age power (bootstrap (N = 200), median) was 0.183, the “Vc-increase for CKD5 subjects” value (bootstrap (N = 200), median) was 1.56 L and the “Vc-proportional increase for bacteremia/HABP/VABP patients” value (bootstrap (N = 200), median) was 0.599. The “Vc-proportional increase for cSSSI patients” value (bootstrap (N = 200), median) was 0.300, the “Vc-proportional increase for females” value (bootstrap (N = 200), median) was −0.0577 and the Vp-BMI power (bootstrap (N = 200), median) was −0.317. The Vp-TBW power (bootstrap (N = 200), median) was 0.969, the Vp-age power (bootstrap (N = 200), median) was 0.289 and the “Vp-proportional increase for bacteremia/HABP/VABP patients” value (bootstrap (N = 200), median) was 0.295. The “Vp-proportional increase for cSSSI patients” value (bootstrap (N = 200), median) was 0.125, the “CLNR (non-renal clearance)” value (bootstrap of final population PK model (N = 200), mean) was 0.399 L/h and the “CLNR (non-renal clearance)” value (bootstrap of final population PK model (N = 200), median) was 0.402 L/h. For the same compound, the Vc-TBW power [3] was 0.469, the Vc-age power [3] was 0.188 and the “Vc-proportional increase for bacteremia/HABP/VABP patients” value [3] was 0.578. The “Vc-proportional increase for cSSSI patients” value [3] was 0.313, the “Vc-proportional increase for females” value [3] was −0.0584 and the Vp-BMI power [3] was −0.308. The Vp-TBW power [3] was 0.976, the Vp-age power [3] was 0.272 and the “Vp-proportional increase for bacteremia/HABP/VABP patients” value [3] was 0.329. The “Vp-proportional increase for cSSSI patients” value [3] was 0.118, the “CLR, max (maximum renal clearance)” value (final population PK model, final estimate, Hill-type CLR-CLcr relationship, N = 1,205) was 1.04 L/h and the “CLd coefficient” value (final population PK model, final estimate, N = 1,205) was 3.73 L/h. The “Vc-increase for CKD5 subjects” value (final population PK model, final estimate, additive increase) was 1.55 L, the “CLDL (dialysis clearance)” value (final population PK model, final estimate, during active intermittent hemodialysis, eight CKD5 subjects) was 1.77 L/h and the “CLNR (non-renal clearance)” value (final population PK model, final estimate, plasma, IV, healthy subjects and patients, N = 1,205) was 0.407 L/h. For the same compound, the “k30 (first-order elimination from the ELF compartment)” value ([2]; ELF population PK model, final estimate, 18 healthy subjects) was 0.154 h⁻¹, the “ELF AUC0-24” value ([2]; 10 mg/kg IV q24h, urea-corrected BAL, mean (SD), SD) was 54.5 (16.1) mg·hour/L and the “ELF AUC0-24” value ([2]; 10 mg/kg IV q24h, maximum) was 99.0 mg·h/L. The “Plasma AUC0-24” value ([2]; 10 mg/kg IV q24h, maximum) was 954 mg·h/L, the “ELF AUC0-24” value ([2]; 10 mg/kg IV q24h, median) was 50.6 mg·h/L and the “Plasma AUC0-24” value ([2]; 10 mg/kg IV q24h, median) was 757 mg·h/L. The “ELF AUC0-24” value ([2]; 10 mg/kg IV q24h, minimum) was 38.3 mg·h/L, the “Plasma AUC0-24” value ([2]; 10 mg/kg IV q24h, minimum) was 570 mg·h/L and the “Plasma AUC0-24” value ([2]; 10 mg/kg IV q24h for 3 days, mean (SD), SD) was 750 (103) mg·hour/L. For the same compound, the Kp uu (clinical; ELF penetration ratio (free drug), ELF AUC0-24/(0.1 total-drug plasma AUC0-24), median, N = 20) was 0.683, the Kp uu (clinical; SD) was 0.73 and the Kp (clinical; ELF AUC0-24/total-drug plasma AUC0-24, healthy subjects, Study I6424-108a, mean (SD), N = 20, SD) was 0.073. The Kp (clinical; ELF AUC0-24/total-drug plasma AUC0-24, median, N = 20) was 0.0683.
